Measurements taken from PMC7801110 (Journal of Enzyme Inhibition and Medicinal Chemistry, 2021).
Entries after “also recorded” stand apart in the source; their conditions may differ.

How the values were obtained:
[1] = system: insulin-degrading enzyme (IDE), His-Tag, rat, recombinant; test: IDE (135 nM) in PBS (pH 7.4); details: 37 °C, up to 180 min
[2] = target: T1, IDE, His-Tag, rat, recombinant (Rattus norvegicus, UniProt P35559); test: HPLC-MS enzymatic assay: degradation of NPFF and NPAF by IDE; format: in vitro ADME; details: PBS pH 7.4, 37 °C, LC-ESI/MS; for cleavage of the peptide by IDE: stability with named protease IDE (135 nM), peptide 20 μM, aliquots 0-180 min, stopped with 1% TFA, repeated three times
T1 construct: His-Tag; purchased Sigma Aldrich; host or cells: Spodoptera frugiperda
T1 sequence (P35559 1-1019): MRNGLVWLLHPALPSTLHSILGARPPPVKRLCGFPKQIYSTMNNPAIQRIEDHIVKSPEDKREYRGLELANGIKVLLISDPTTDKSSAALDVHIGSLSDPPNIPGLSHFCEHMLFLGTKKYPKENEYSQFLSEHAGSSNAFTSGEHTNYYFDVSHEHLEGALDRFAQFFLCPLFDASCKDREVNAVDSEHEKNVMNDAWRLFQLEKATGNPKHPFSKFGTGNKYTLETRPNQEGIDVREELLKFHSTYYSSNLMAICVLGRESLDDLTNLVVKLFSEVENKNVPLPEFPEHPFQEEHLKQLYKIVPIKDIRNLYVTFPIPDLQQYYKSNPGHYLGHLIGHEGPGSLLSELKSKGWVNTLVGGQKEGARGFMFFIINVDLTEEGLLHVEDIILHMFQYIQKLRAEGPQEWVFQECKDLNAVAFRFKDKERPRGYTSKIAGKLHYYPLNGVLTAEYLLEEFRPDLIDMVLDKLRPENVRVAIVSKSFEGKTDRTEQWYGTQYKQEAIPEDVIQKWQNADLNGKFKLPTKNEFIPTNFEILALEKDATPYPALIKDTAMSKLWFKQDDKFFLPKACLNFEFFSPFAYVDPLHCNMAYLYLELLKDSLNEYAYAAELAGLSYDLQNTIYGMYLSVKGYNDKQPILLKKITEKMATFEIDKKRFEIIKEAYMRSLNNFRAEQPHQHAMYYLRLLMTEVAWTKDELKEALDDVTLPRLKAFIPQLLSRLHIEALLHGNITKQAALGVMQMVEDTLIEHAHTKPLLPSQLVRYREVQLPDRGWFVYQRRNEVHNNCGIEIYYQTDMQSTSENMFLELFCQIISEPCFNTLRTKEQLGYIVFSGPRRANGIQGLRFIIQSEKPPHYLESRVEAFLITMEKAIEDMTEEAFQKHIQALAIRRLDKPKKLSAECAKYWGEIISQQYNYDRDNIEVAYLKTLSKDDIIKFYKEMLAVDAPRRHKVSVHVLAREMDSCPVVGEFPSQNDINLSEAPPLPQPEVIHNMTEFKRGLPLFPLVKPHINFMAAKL
Experimental: IDE, His-Tag, rat, recombinant, Spodoptera frugiperda, were purchased from Sigma Aldrich. […] Peptides were purified by the high-performance liquid chromatography (HPLC) and tested for their purity using ESI MS. Purity was above 95%. […] The liquid chromatography-electrospray ionisation mass spectrometry (LC-ESI/MS) experiments were carried out by using a LCQ Deca XP instrument (Thermo Electron Corporation, USA). All solutions were incubated in PBS (pH 7.4) at 37 °C. […] Samples were kept at 4 °C before HPLC-MS analysis. […] Separation of the generated fragments was carried out by the reversed-phase chromatography using a Jupiter® 5 µm C4 300 Å (LC Column 150 × 4.6 mm) column from Phenomenex at the flow rate of 250 μl/min. MS-MS experiments were used for final identification of the peptide fragments. All methodological details and a semiquantitative method were already described in our previous work, and the absolute intensities of the peaks were normalised to the total ion current[18]^,[24]^,[25]. The experiments were repeated three times to ensure reproducibility and estimate the error bars on the HPLC-MS results.

[3] = target: T1, IDE, His-Tag, rat, recombinant; test: Insulin degradation by IDE in the presence of NPAF/NPFF (HPLC-MS); format: biochemical; details: PBS pH 7.4, 37 °C, LC-ESI/MS; for effect on insulin degradation by IDE after 3 h pre-incubation of the neuropeptide with IDE (NP fragments): NP 20 μM incubated 3 h with IDE 135 nM, then insulin 10 μM added, data not shown
Experimental: IDE, His-Tag, rat, recombinant, Spodoptera frugiperda, were purchased from Sigma Aldrich. NPAF, NPFF were manually synthesised by the solid-phase method using Fmoc chemistry. Peptides were purified by the high-performance liquid chromatography (HPLC) and tested for their purity using ESI MS. […] The liquid chromatography-electrospray ionisation mass spectrometry (LC-ESI/MS) experiments were carried out by using a LCQ Deca XP instrument (Thermo Electron Corporation, USA). All solutions were incubated in PBS (pH 7.4) at 37 °C. After incubations, sample aliquots at time 0; 10; 30; 45; 60 and 180 min were taken and a 10% solution of TFA was added to the aliquots in order to achieve a final TFA concentration of 1% in all the samples to stop the enzymatic reaction. Samples were kept at 4 °C before HPLC-MS analysis. […] Separation of the generated fragments was carried out by the reversed-phase chromatography using a Jupiter® 5 µm C4 300 Å (LC Column 150 × 4.6 mm) column from Phenomenex at the flow rate of 250 μl/min. MS-MS experiments were used for final identification of the peptide fragments. All methodological details and a semiquantitative method were already described in our previous work, and the absolute intensities of the peaks were normalised to the total ion current[18]^,[24]^,[25]. The experiments were repeated three times to ensure reproducibility and estimate the error bars on the HPLC-MS results.

Row | Substance | cleaved bond [1] | cleavage of the peptide by IDE [2] | effect on insulin degradation by IDE after 3 h pre-incubation of the neuropeptide with IDE (NP fragments) [3] | further results
1 | HAla-Gly-Glu-Gly-Leu-Ser-Ser-Pro-Phe-Trp-Ser-Leu-Ala-Ala-Pro-Gln-Arg-PheOH | Gly-Glu; also recorded: Ser-Leu, major, 10 min; also recorded: Leu-Ala, major, 10 min; also recorded: Gln-Arg, major, 10 min |  |  | 
2 | HAla-Gly-Glu-Gly-Leu-Ser-Ser-Pro-Phe-Trp-Ser-Leu-Ala-Ala-Pro-Gln-Arg-PheOH [NPAF, neuropeptide generated from the NPFF precursor (pro-NPFF(A)), manually synthesised by Fmoc solid-phase method] |  | able to cleave | no activation effect | effect of the neuropeptide on insulin degradation by IDE (insulin molecular peak decrease) ([3]; NP 20 μM co-incubated with insulin 10 μM and IDE 135 nM, performed three times): activating effect
3 | HAla-Gly-Glu-Gly-Leu-Ser-Ser-Pro-Phe-Trp-Ser-Leu-Ala-Ala-Pro-GlnOH [cryptic peptide at 1617.8 m/z, cryptic peptide formed from NPAF by IDE, detected at m/z 1617.8] |  |  |  | incubation time at which the relative intensity of the cryptic peptide reaches a maximum ([2]; NPAF 20 μM with IDE 135 nM, intensities normalised to total ion current, abundance diminishes afterwards): about 30 min
4 | HPhe-Leu-Phe-Gln-Pro-Gln-Arg-PheOH | Gln-Arg, major, 10 min |  |  | 
5 | HPhe-Leu-Phe-Gln-Pro-Gln-Arg-PheOH [NPFF, neuropeptide generated from the NPFF precursor (pro-NPFF(A)), manually synthesised by Fmoc solid-phase method] |  | able to cleave | no activation effect | 
